Active and inactive are the calls of the source.
Assays:
Protein Tat = Protein Tat (Human immunodeficiency virus type 1 group M subtype B (isolate HXB2)(HIV-1), UniProt P04608); assay type: functional;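 note: tat binding to TAR RNA read out by fluorescence polarization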
Phospholipase A2 = Phospholipase A2 (Homo sapiens, UniProt P04054); assay type: functional;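 note: confirmatory dose-response counterscreen on phospholipase A2, testing hits that came from an ultra-high-throughput screen for ATG4B inhibitors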
[1] = target: Bifunctional protein GlmU (Mycobacterium tuberculosis, UniProt P9WMN3); test: Inhibitors of Mycobacterial Glucosamine-1-phosphate acetyl transferase (GlmU). Secondary screen.; design: species or system Mycobacterium tuberculosis H37Rv
Cysteine protease ATG4B = target: T1, Cysteine protease ATG4B (Homo sapiens, UniProt Q9Y4P1); assay type: functional;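 note: Fluorescence-based dose-response confirmation assay measuring inhibition of ATG4B activity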
T1 sequence (Q9Y4P1 whole entry): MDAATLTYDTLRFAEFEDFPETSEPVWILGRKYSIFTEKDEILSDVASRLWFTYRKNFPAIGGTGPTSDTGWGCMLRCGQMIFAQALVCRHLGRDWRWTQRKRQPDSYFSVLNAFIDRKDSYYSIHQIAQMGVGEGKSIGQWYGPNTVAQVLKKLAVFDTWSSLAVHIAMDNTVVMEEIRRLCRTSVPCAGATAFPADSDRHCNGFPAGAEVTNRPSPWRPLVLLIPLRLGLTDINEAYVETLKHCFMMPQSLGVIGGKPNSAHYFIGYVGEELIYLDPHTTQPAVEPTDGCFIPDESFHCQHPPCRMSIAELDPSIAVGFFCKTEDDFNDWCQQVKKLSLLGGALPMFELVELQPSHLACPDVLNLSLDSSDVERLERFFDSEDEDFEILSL

[2] = target: T2, Oxysterols receptor LXR-beta (Homo sapiens, UniProt P55055); test: LXR agonists, Gal4 luciferase reporter, dose response, counter-screen for ssDAF-12 agonist project, cell-based, luminescence, HEK293, S. stercoralis campaign (AID 720737); assay type: functional; details: read-out: IC50 (the source's name)
T2 sequence (P55055 whole entry): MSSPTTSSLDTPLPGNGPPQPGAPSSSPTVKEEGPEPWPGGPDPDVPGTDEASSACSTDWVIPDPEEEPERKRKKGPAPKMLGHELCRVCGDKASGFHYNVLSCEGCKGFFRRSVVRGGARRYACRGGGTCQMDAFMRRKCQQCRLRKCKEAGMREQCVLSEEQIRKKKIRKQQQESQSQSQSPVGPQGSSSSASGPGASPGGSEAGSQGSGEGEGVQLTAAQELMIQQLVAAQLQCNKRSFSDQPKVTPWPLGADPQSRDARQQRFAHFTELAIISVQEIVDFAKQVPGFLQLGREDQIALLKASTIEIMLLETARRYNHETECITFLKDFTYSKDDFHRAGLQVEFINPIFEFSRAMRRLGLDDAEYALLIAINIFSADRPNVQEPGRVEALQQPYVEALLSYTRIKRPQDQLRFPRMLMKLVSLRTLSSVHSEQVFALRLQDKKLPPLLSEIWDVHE

[3] = Luminescence Cell-Based Dose Response HTS to Identify Activators of Luciferase Translation or Activity in H4 […] Cells. [Related pubchem assays: 1829 (Project Summary), 1814 (Primary HTS)]; assay type: functional
[4] = Luminescence-based cell-based high throughput dose response assay to identify activators of the DAF-12 from the parasite S. stercoralis (ssDAF-12).; assay type: functional
[5] = Counterscreen for activators of the function of SWI/SNF related, matrix associated, actin dependent regulator of chromatin, subfamily a, member 2 (SMARCA2, BRM): Luminescence-based cell-based high throughput dose response assay to identify non-selective compounds using the VP16 reporter assay.; assay type: functional
[6] = target: SWI/SNF-related matrix-associated actin-dependent regulator of chromatin subfamily A member 2 (Homo sapiens, UniProt P51531); test: Luminescence-based cell-based high throughput dose response assay to identify activators of the function of SWI/SNF related, matrix associated, actin dependent regulator of chromatin, subfamily a, member 2 (SMARCA2, BRM).; assay type: functional
ELAV-like protein 1 = ELAV-like protein 1 (Homo sapiens, UniProt Q15717); test: Identify HuR specific inhibitors.; assay type: functional
[7] = target: T3, Carboxy-terminal domain RNA polymerase II polypeptide A small phosphatase 1 (Homo sapiens, UniProt Q9GZU7); test: CTDSP1 inhibitors, concentration-response, biochemical, absorbance readout, ultra-high-throughput screen actives (AID 540297); assay type: functional
T3 sequence (Q9GZU7 whole entry): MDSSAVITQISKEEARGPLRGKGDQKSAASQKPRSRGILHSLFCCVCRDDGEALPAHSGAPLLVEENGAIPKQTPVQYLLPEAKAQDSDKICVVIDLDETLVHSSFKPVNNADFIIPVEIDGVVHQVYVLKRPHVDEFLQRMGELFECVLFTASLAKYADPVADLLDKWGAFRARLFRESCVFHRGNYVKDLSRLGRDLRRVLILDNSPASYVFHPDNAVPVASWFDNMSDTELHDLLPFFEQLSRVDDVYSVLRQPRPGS

Caspase-6 = target: T4, Caspase-6 (Homo sapiens, UniProt P55212); test: inhibition of CASP6 peptide cleavage – biochemical, VEID-R110 fluorescence, cherry-pick, dose response (AID 720632)
T4 sequence (P55212 whole entry): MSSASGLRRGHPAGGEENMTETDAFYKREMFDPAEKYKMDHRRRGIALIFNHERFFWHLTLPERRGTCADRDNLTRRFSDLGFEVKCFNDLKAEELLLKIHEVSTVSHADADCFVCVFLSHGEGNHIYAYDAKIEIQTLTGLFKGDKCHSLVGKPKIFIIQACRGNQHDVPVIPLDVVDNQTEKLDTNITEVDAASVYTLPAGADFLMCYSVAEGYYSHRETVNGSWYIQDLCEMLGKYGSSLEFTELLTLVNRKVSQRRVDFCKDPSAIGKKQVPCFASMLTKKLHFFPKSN

[8] = HIV-1 AD8 envelope cell-cell fusion blockers – cherry-pick, dose response (AID 652062); assay type: functional, cell-based;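 note: luciferase signal from cell-cell fusion driven by HIV-1 clade B AD8 Env; potency is for inhibitors of fusion seen as a drop in luminescence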
[9] = blockers of HIV-1 envelope-mediated cell-cell fusion – cherry-pick, dose response (AID 652057); assay type: functional, cell-based
[10] = inhibition of Env-driven cell fusion – HIV entry, plate reader, dry powder, dose response (AID 687023); assay type: functional, cell-based
[11] = off-target signal loss in HeLa-CEM21 co-culture – HeLa F-luc CTL cells, cherry-picked, counter-screen for HIV-1 Env fusion inhibitor project, dose response (AID 652040); assay type: functional, cell-based;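 note: potency for signal decrease marking cytotoxic or nonspecific inhibition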
[12] = blockers of HIV-1 ZM109 envelope-driven cell-cell fusion – HeLa effector, CEM target cells, luciferase, cherry-pick, dose response (AID 652058); assay type: functional, cell-based;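 note: luciferase signal from HIV-1 Env mediated cell-cell fusion of effector and target cells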
[13] = viability loss in CEM21 cells – cell-based, plate reader, dry powder, cytotoxicity control, dose response (AID 687026); assay type: functional
Paired box protein Pax-8 = Paired box protein Pax-8 (Homo sapiens, UniProt Q06710); test: PAX8 transcriptional activity inhibition in RMG-I – RMG-I cells, luciferase, cherry-pick, dose response (AID 687027); assay type: functional, cell-based;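 note: luciferase reporter driven by Pax8 target thyroperoxidase promoter measured by SteadyGlo luminescence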
[14] = COV434 cell viability loss – plate reader, dry powder, SA7, cytotoxicity control for PAX8 inhibitor project, dose response (AID 743145); assay type: functional, cell-based
[15] = inhibitors acting on PAX2 in cells – cell-based, plate reader, dry powder samples, selectivity assay for PAX8 inhibitor project, dose response (AID 743048); assay type: functional;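 note: HEK293 cells carrying a WT1 promoter luciferase reporter driven by expressed Pax2; potency is for inhibition of Pax2 driven reporter signal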
[16] = OVCAR8 cell viability loss – plate reader, dry powder samples, PAX8 project, dose response (AID 743197); assay type: functional, cell-based; details: OVCAR-8
[17] = PAX5 cellular inhibition readout – cell-based, plate reader, dry powder samples, selectivity assay for PAX8 inhibitor project, dose response (AID 743047); assay type: functional;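 note: HEK293 cells carrying a Pax5 driven CD19 promoter luciferase reporter; potency of inhibitors that lower reporter luminescence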
[18] = OVCAR-3 cell viability loss – plate reader, dry powder samples, PAX8 inhibitor project, dose response (AID 743044); assay type: functional, cell-based
[19] = IGROV1 cell killing – plate reader, dry powder samples, PAX8 inhibitor project, dose response (AID 743043); assay type: functional, cell-based; details: IGROV-1
[20] = PAX8-dependent cell viability loss – plate reader, dry powder, dose response (AID 743049); assay type: functional, cell-based

ELAV-like protein 1, sequence (Q15717 whole entry, the tested form may be a part): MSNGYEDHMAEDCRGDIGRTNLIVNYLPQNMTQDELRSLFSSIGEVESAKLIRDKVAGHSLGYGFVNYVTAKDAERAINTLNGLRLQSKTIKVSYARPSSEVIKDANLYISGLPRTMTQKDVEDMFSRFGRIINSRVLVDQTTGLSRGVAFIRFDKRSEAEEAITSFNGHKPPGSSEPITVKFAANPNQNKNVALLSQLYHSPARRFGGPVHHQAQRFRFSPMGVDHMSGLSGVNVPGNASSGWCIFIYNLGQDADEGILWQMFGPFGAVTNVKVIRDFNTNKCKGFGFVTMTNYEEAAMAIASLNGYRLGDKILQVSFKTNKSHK
Protein Tat, sequence (P04608 whole entry): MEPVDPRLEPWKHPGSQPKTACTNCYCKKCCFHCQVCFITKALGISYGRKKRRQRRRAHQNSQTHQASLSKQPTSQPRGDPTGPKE
Phospholipase A2, sequence (P04054 whole entry): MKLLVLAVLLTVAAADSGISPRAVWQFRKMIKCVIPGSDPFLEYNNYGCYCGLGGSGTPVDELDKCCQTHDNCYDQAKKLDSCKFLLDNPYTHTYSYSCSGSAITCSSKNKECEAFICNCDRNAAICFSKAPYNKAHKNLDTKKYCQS
SWI/SNF-related matrix-associated actin-dependent regulator of chromatin subfamily A member 2, sequence (P51531 whole entry): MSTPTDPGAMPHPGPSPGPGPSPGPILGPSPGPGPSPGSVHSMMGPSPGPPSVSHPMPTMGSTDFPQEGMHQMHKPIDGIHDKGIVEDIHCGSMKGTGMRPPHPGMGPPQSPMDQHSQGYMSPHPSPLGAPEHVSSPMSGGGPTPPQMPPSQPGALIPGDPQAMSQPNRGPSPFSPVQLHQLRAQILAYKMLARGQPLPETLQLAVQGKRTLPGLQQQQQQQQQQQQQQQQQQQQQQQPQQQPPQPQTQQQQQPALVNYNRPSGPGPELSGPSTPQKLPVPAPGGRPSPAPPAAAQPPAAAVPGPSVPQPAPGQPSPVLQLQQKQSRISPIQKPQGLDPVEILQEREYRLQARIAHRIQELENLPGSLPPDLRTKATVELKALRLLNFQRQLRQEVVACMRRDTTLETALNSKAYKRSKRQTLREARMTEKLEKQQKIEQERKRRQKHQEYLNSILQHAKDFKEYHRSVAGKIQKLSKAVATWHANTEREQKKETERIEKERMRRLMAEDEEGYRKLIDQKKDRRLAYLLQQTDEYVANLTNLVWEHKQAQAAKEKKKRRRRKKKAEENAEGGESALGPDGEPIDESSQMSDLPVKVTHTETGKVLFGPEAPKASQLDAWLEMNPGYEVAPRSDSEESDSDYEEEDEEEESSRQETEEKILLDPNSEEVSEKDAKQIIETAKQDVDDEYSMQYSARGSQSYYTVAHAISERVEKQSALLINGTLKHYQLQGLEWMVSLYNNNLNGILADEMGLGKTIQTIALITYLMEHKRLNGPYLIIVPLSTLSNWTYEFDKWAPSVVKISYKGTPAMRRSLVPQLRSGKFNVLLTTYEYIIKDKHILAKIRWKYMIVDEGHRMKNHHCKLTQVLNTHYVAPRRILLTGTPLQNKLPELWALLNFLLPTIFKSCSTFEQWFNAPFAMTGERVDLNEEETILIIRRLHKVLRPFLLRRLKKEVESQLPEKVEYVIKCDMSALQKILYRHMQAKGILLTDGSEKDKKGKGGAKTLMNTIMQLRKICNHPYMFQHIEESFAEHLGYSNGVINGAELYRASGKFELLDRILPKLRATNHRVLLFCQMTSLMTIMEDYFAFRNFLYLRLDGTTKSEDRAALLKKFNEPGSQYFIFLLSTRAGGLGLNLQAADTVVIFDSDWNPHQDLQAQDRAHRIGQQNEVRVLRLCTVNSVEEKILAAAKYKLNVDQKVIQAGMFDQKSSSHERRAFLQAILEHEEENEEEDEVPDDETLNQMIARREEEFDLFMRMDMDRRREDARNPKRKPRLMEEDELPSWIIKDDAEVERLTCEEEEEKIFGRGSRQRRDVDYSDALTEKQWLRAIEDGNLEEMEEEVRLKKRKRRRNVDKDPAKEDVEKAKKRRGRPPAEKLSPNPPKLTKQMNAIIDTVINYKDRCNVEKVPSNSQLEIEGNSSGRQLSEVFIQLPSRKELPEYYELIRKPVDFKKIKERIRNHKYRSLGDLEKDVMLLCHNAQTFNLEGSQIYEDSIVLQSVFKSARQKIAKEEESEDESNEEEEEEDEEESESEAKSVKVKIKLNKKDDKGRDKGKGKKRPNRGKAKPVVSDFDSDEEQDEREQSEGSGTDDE
Paired box protein Pax-8, sequence (Q06710 whole entry): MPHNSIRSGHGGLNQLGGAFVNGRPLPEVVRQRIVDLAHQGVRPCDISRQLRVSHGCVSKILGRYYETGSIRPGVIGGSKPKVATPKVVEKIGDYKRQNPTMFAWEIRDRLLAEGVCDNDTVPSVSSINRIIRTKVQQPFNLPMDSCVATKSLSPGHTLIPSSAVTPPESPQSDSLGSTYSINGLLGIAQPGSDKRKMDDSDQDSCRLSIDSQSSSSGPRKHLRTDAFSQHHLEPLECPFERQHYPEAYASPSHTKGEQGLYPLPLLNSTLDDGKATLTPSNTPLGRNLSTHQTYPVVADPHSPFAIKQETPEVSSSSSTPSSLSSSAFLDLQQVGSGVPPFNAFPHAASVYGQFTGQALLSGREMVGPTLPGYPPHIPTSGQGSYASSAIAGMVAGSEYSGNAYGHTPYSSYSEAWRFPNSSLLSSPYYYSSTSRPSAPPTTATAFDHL
Bifunctional protein GlmU, sequence (P9WMN3 whole entry): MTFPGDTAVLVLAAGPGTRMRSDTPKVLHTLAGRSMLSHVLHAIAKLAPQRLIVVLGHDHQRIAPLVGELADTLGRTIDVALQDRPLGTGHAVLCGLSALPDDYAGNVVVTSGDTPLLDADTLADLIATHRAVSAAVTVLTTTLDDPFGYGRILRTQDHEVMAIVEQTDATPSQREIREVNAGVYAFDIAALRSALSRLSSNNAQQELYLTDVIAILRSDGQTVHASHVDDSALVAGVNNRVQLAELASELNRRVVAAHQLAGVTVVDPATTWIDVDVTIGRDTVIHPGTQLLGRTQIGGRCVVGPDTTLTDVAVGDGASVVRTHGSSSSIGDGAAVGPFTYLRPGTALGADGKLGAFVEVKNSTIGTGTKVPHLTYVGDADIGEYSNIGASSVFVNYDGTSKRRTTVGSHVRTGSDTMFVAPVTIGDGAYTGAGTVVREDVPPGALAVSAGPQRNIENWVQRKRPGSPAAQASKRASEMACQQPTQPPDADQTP

SMILES: CCCCn1c(N)c(N(CCOC)C(=O)c2cc(-c3ccco3)nc3ccccc23)c(=O)[nH]c1=O
- IC50 (Protein Tat): > 100 µM (active)

SMILES: C=CC#CC[N+]1(CC#Cc2ccccc2)CCOCC1
- IC50 (Phospholipase A2): 11.8 µM (active)
- IC50 [1]: 124 µM (active)
- IC50 (Cysteine protease ATG4B): 5.56 µM (active)

SMILES: Cc1c(C(=O)Nc2ccccn2)oc2ccccc12
- EC50 [2]: > 67.5 µM (inactive)
- EC50 [3]: 0.901 µM (active)
- IC50 [4]: > 67.5 µM (inactive)

SMILES: CC#CC#Cc1cccc(=O)o1
- EC50 [5]: > 91 µM (inactive)
- EC50 [6]: > 91 µM (inactive)
- IC50 (ELAV-like protein 1): 44.4 µM (active)
- IC50 [7]: 16.5 µM (active)
- AC50 (Caspase-6): 9.68 µM (active)

SMILES: O=C(Nc1ccc2c(c1)CCC2)C1CCN(c2c3c(nc4ncnn24)CCC3)CC1
- AC50 [8]: 3.88 µM (active)
- AC50 [9]: 9.44 µM (active)
- AC50 [10]: 5.08 µM (active)
- AC50 [11]: 41.2 µM (active)
- AC50 [12]: 1.4 µM (active)
- AC50 [13]: > 70 µM (inactive)

SMILES: O=C(C[C@H]1CC[C@H]2[C@@H](COC[C@@H](O)CN2S(=O)(=O)c2cccc(Cl)c2)O1)Nc1ccc(-c2ccccc2)cc1
- AC50 (Paired box protein Pax-8): 8.28 µM (active)
- AC50 [14]: 37.9 µM (active)
- AC50 [15]: 8.55 µM (active)
- AC50 [16]: 27.7 µM (active)
- AC50 [17]: 3.85 µM (active)
- AC50 [18]: 43 µM (active)
- AC50 [19]: 31.2 µM (active)
- AC50 [20]: 20.3 µM (active)

From ChEMBL document CHEMBL1201862, “PubChem BioAssay data set” (2004)
